Measurements from patent US20160053277A1, “Compositions Having Dicamba Decarboxylase Activity and Methods of Use” (PIONEER HI-BRED INTERNATIONAL, INC., priority 2013, published 2016).
Entries after “also recorded” stand apart in the source; their conditions may differ.

How the values were obtained:
[1] = tested on: Arabidopsis ecotype Columbia (Col-0); test: Arabidopsis root growth inhibition assay; conditions: 6 days
Experimental: Phytotoxicity of other major dicamba decarboxylated products was evaluated using Arabidopsis root growth inhibition assay. 4-chloro-3-methoxy phenol was purchased from Biogene Organics, Inc. (catalog number U06-642-79). 2,5-dichloro phenol was purchased from Sigma-Aldrich (catalog number D70007). Briefly, seeds of Arabidopsis ecotype Columbia (Col-0) were surface sterilized with 70% (v/v) ethanol for 5 minutes and 10% (v/v) bleach for 15 minutes. After being washed three times with distilled water, the seeds were germinated on 1× Murashige and Skoog (MS) medium with a pH of 5.7, 3% (w/v) sucrose, and 0.8% (w/v) agar. After incubation for 3.5 days, the seedlings were transferred to 1× MS medium containing B5 vitamin, 3% (w/v) sucrose, 1.2% (w/v) agar, and filter sterilized compounds was added to the media at 60° C. The concentrations of compounds including dicamba were 0 μM, 1.0 μM, and 10 μM. The seedlings were placed vertically, and the temperature maintained at 23° C. to allow root growth along the surface of the agar, with a photoperiod of 16 h of light and 8 h of dark.
After 6 days on media, root growth was evaluated. In wild type Arabidopsis, root growth inhibition is expected from auxin herbicide treatment.

Soybean seeds = test: Soybean germination test on media with dicamba or decarboxylation product; format: in vivo; conditions: FIG. 2, concentration not stated

| soybean germination (Soybean seeds) | Compound | Arabidopsis root growth ([1]; 1 uM in medium) | Arabidopsis root growth ([1]; 10 uM in medium) |
| --- | --- | --- | --- |
| – | Oc1cc(Cl)ccc1Cl [2,5-dichloro phenol] | not affected; also recorded: did not have any effect | not affected; also recorded: did not have any effect |
| not affected | COc1cc(Cl)ccc1Cl [2,5-DCA, 2,5-dichloro anisole] | – | – |
